{
  "source": "paper PMC8020931",
  "about": "“Spectroscopic and in silico investigation of the interaction between GH1 β‐glucosidase and ginsenoside Rb1” (Food Science & Nutrition, 2021)",
  "target": "T1, β‐glucosidase (GH1 family, bglB) (Paenibacillus polymyxa, UniProt P22505)",
  "T1 construct": "full-length protein encoded by bglB (448 aa, GenBank M60211.1), six His-tags, pET-28a(+), expressed in E. coli BL21(DE3)",
  "T1 sequence (P22505 whole entry)": "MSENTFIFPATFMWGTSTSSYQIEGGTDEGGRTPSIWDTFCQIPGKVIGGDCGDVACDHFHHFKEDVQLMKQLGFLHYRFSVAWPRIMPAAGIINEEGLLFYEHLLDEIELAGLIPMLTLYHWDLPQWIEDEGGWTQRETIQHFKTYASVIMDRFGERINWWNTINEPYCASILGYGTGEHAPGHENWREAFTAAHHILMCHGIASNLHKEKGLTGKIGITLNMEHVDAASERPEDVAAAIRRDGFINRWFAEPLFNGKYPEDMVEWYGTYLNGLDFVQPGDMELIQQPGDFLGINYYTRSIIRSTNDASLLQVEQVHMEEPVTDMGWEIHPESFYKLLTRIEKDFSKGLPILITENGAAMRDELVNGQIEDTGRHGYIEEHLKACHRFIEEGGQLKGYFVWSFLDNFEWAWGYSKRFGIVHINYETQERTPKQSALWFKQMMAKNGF",
  "test": "LSPR (enzyme immobilised on COOH chip, […] model); supported by fluorescence quenching, UV-Vis and CD",
  "type": "binding",
  "data": [
    {"smiles": "CC(C)=CCC[C@](C)(O[C@@H]1O[C@H](CO[C@@H]2O[C@H](CO)[C@@H](O)[C@H](O)[C@H]2O)[C@@H](O)[C@H](O)[C@H]1O)[C@H]1CC[C@]2(C)[C@@H]1[C@H](O)C[C@@H]1[C@@]3(C)CC[C@H](O[C@@H]4O[C@H](CO)[C@@H](O)[C@H](O)[C@H]4O[C@@H]4O[C@H](CO)[C@@H](O)[C@H](O)[C@H]4O)C(C)(C)[C@@H]3CC[C@]12C", "note": "[ginsenoside Rb1]", "values": [
      {"measurement": "Kd", "value": 524, "unit": "µM"}
    ]}
  ]
}
